Results on one molecule are retold here after US20140154717A1, “METHOD FOR DETECTING CANCER CELL USING FLUORESCENTLY LABELED L-GLUCOSE DERIVATIVE, AND CANCER CELL-IMAGING AGENT COMPRISING FLUORESCENTLY LABELED L-GLUCOSE DERIVATIVE” (priority 2011, published 2014).

The test concerns mouse insulinoma cells (MIN6). The test is described as follows: Confocal imaging of tumor cell clusters composed of mouse insulinoma cells (MIN6) using 2-NBDLG. It counts as cell-based. As to conditions: 100 μM, perfusion 3 minutes, just after washout; MIN6 cultured 11 days. The method, then:
Culture medium containing MIN6 cells suspended at a proportion of 10×10^4 cells/mL was dispersed by pipetting, and dropped on a glass cover slip, then, allowed to stand still in a 5% CO2 incubator for 20 minutes to cause adhesion to the glass surface, and 3 mL of the culture medium was added, and the cells were cultured. The half quantity of the culture medium was exchanged every two days.
MIN6 cells (provided by Professor Miyazaki Junichi, Osaka University, and the passage number was six to nine times) were seeded on a 10 cm petri dish, allowed to stand still in a CO2 incubator, and cultured at 37° C. The half quantity of the culture medium was exchanged every two days.
High glucose-containing Dulbecco's modified Eagle's Medium (DMEM-HG) (SIGMA #D5648) (13.4 g), NaHCO3 (Wako, No. 191-01305) (3.4 g) and 2-Mercaptoethanol (Wako, No. 135-14352) (5 μL) were dissolved in 1 liter of ultra-pure water (Mili Q), and equilibrated with ambient air. Next, pH was adjusted to 7.3 to 7.35 using 1N HCl in a CO2 incubator at 37° C., and sterilized by suction filtration. Directly before use, Hyclone Fetal Bovine Serum (Cat# SH30070.03) was added so as to give a final concentration of 10% and penicillin-streptomycin (Gibco #15140) was added so as to give a final concentration of 0.5%.
MIN6 cells were prepared with culture medium so that the cell number was 10×10^4 cells/mL.
The whole quantity of one vial of 0.5 mg 2-NBDLG was dissolved in 14. 6 mL of a HEPES solution for image acquisition, for preparing a 2-NBDLG solution having a final concentration of 100 μM.
NaCl 131.8 mM, KCl 4.75 mM, KH2PO4 1.19 mM, MgCl2 1.2 mM, CaCl2 1 mM, NaHCO3 5.0 mM, D-Glucose 2.8 mM, HEPES 10 mM (adjusted to pH 7.35 with 1M NaOH). For inhibiting entrance and elimination of fluorescently labeled glucose via a gap junction/hemichannel, 0.1 mM Carbenoxolone (SIGMA #C4790) was added. The HEPES solution for image acquisition was used as a solution for preparing a 2-NBDLG solution and as a solution for preparing a 2-NBDLG/2-TRLG solution. […]

For `O=[N+]([O-])c1ccc(NC2C(O)OC(CO)[C@H](O)C2O)c2nonc12` (stereo partly drawn) [2-NBDLG, 2-[N-(7-Nitrobenz-2-oxa-1,3-diazol-4-yl)amino]-2-deoxy-L-glucose], the “uptake into cell cluster (a), developed cluster with abnormal nuclei” value is “intense uptake”; the “uptake into cell cluster (b), normal nucleus morphology” value was “only a slight uptake”; the “uptake into cell cluster (c), two-dimensionally accumulated planar cluster” value is on record as “almost no increase in the fluorescence intensity”.
